Ki data for 16 compounds are collected here from patent US20110002855A1 (NEUROGEN CORPORATION, priority 2007, published 2011).

The assay deals with T1, chimeric human H3 receptor (Homo sapiens, UniProt Q9Y5N1).
T1 construct: made in house; host or cells: Sf9 insect cells (baculovirus); P2 membrane preparation
The assay is described as follows: Chimeric human H3 receptor GTP binding assay (Example 7). It counts as biochemical. The following applies: agonist (1 μM histamine)-stimulated GTP-gamma35S binding, P2 membranes of Sf9 cells; Ki from IC50 by Cheng-Prusoff. An excerpt:
This Example illustrates a representative assay for evaluating agonist-stimulated GTP-gamma^35S binding (“GTP binding”) activity. […] This agonist-stimulated GTP binding activity can also be used to detect partial agonism mediated by antagonist compounds. A compound analyzed in this assay is referred to herein as a “test compound.”
Four independent baculoviral stocks (one directing the expression of the chimeric human H3 receptor and three directing the expression of each of the three subunits of a heterotrimeric G-protein) are used to infect a culture of Sf9 cells as described above. P2 membranes are prepared as described above, and agonist-stimulated GTP binding on the P2 membranes is assessed using histamine (Sigma Chemical Co., St. Louis, Mo.) as agonist in order to ascertain that the receptor/G-protein-alpha-beta-gamma combination(s) yield a functional response as measured by GTP binding. P2 membranes are resuspended by Dounce homogenization (tight pestle) in GTP binding assay buffer (50 mM Tris pH 7.4, 120 mM NaCl, 5 mM MgCl2, 2 mM EGTA, 1 mg/ml BSA, 0.2 mg/ml bacitracin, 0.02 mg/ml aprotinin, 0.01 mg/ml saponin, 10 μM GDP) and added to assay tubes at a concentration of 35 μg protein/reaction tube. After adding increasing doses of histamine at concentrations ranging from 10^−12 M to 10^−5 M, reactions are initiated by the addition of 125 pM GTP-gamma^35S (PERKIN ELMER; Boston, Mass.) with a final assay volume of 0.20 ml. In competition experiments, non-radiolabeled test compounds are added to separate reactions at concentrations ranging from 10^−10 M to 10^−6M along with 1 μM histamine to yield a final volume of 0.20 ml.
Neutral antagonists are antagonists that are substantially free of inherent agonist activity, and include those test compounds that reduce the histamine-stimulated GTP binding activity towards, but not below, baseline levels. In contrast, in the absence of added histamine, inverse agonists reduce the GTP binding activity of the receptor-containing membranes below baseline.
After a 60-min incubation at room temperature, reactions are terminated by vacuum filtration over WHATMAN GF/C filters (pre-soaked in wash buffer, 0.1% BSA) followed by washing with ice-cold wash buffer (50 mM Tris pH 7.4, 120 mM NaCl). The amount of receptor-bound (and thereby membrane-bound) GTE-gamma^35S is determined by measuring the filter-bound radioactivity, preferably by liquid scintillation spectrometry of the washed filters. Non-specific binding is determined in parallel assays including 10 μM unlabeled GTP-gammaS and typically represents less than 5 percent of total binding. Data is expressed as percent above basal (baseline). The results of GTP binding experiments are analyzed using SIGMAPLOT software (SPSS Inc., Chicago, Ill.). IC50 values are calculated by non-linear regression analysis of dose-response curves using Kaleidograph (Synergy Software, Reading, Pa.).
Alternatively the data is analyzed as follows. First, the average bound radioactivity from negative control wells (no agonist) is subtracted from the bound radioactivity detected for each of the other experimental wells. Second, average bound radioactivity is calculated for the positive control wells (agonist wells). Then, percent inhibition for each compound tested is calculated using the equation:
Calculated IC50 values are converted to Ki values by the Cheng-Prusoff correction (Cheng and Prusoff (1973) Biochem. Pharmacol. 22(23):3099-3108). Accordingly, the following equation: Ki=IC50/(1+[L]/EC50) is used, where [L] is the histamine concentration in the GTP binding assay, and EC50 is the concentration of histamine producing a 50% response, as determined by a dose-response analysis using concentrations of histamine ranging from 10^−10 M to 10^−6M. […]

T1 sequence (Q9Y5N1 with tags, fused parts or gaps): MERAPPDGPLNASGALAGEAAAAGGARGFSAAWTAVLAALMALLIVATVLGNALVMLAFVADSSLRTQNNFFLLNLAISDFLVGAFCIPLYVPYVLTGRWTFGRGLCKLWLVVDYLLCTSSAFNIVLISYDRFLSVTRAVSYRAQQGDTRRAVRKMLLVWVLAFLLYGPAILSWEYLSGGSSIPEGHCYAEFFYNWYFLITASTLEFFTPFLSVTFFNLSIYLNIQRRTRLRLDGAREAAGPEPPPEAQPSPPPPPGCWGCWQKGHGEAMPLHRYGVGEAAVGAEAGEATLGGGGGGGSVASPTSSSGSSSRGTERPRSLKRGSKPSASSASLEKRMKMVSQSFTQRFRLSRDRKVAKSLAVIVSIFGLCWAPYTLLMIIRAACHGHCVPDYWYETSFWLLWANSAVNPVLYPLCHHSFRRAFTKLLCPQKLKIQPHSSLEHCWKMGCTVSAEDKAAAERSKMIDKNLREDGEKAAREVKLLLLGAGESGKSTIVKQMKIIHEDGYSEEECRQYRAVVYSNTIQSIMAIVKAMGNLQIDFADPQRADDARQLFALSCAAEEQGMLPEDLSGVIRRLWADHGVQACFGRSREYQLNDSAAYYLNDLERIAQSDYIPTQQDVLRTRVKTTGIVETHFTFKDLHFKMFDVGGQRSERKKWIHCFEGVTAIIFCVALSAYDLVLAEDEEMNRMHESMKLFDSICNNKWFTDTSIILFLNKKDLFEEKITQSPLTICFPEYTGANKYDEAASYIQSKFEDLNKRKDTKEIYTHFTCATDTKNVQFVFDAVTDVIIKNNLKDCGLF

Consider `COc1ccc2[nH]c3c(c2c1)CCN(CC(=O)N1CCN(C2CCC2)CC1)C3` [Compound 18, 2-[2-(4-Cyclobutylpiperazin-1-yl)-2-oxoethyl]-6-methoxy-2,3,4,9-tetrahydro-1H-beta-carboline], for which the Ki is below 1 µM. In the case of `Cc1ccc2[nH]c3c(c2c1)CCN(CC(=O)N1CCN(C2CCC2)CC1)C3` [Compound 20, 2-[2-(4-Cyclobutylpiperazin-1-yl)-2-oxoethyl]-6-methyl-2,3,4,9-tetrahydro-1H-beta-carboline], the Ki was below 1 µM.

For the compound `COc1ccc2c(c1)c1c(n2C)CN(CC(=O)N2CCN(C3CCC3)CC2)CC1` [Compound 19, 2-[2-(4-Cyclobutylpiperazin-1-yl)-2-oxoethyl]-6-methoxy-9-methyl-2,3,4,9-tetrahydro-1H-beta-carboline], the Ki is below 1 µM. The result for `O=C(CN1CCc2c([nH]c3cc(F)ccc23)C1)N1CCN(C2CCC2)CC1` [Compound 24, 2-[2-(4-Cyclobutylpiperazin-1-yl)-2-oxoethyl]-7-fluoro-2,3,4,9-tetrahydro-1H-beta-carboline] reads below 1 µM.

Turning to `O=C(CN1CCc2c([nH]c3cccc(F)c23)C1)N1CCN(C2CCC2)CC1` [Compound 26, 2-[2-(4-Cyclobutylpiperazin-1-yl)-2-oxoethyl]-5-fluoro-2,3,4,9-tetrahydro-1H-beta-carboline], the Ki is below 1 µM.

As to `Cn1c2c(c3cc(F)ccc31)CCN(CC(=O)N1CCN(C3CCC3)CC1)C2` [Compound 23, 2-[2-(4-Cyclobutylpiperazin-1-yl)-2-oxoethyl]-6-fluoro-9-methyl-2,3,4,9-tetrahydro-1H-beta-carboline], the Ki was below 1 µM. In the case of `O=C(CN1CCc2c([nH]c3ccc(Br)cc23)C1)N1CCN(C2CCC2)CC1` [Compound 22, 6-Bromo-2-[2-(4-cyclobutylpiperazin-1-yl)-2-oxoethyl]-2,3,4,9-tetrahydro-1H-beta-carboline], the Ki is below 1 µM. Under `O=C(CN1CCc2c([nH]c3ccc(F)cc23)C1)N1CCN(C2CCC2)CC1` [Compound 21, 2-[2-(4-Cyclobutylpiperazin-1-yl)-2-oxoethyl]-6-fluoro-2,3,4,9-tetrahydro-1H-beta-carboline] stands below 1 µM; under `O=C(CN1CCc2c([nH]c3ccccc23)C1)N1CCN2CCCCC2C1` (stereo not drawn) [Compound 32, 2-[2-(Octahydro-2H-pyrido[1,2-a]pyrazin-2-yl)-2-oxoethyl]-2,3,4,9-tetrahydro-1H-beta-carboline], below 1 µM; under `O=C(CN1CCc2c(n(CC(F)(F)F)c3ccccc23)C1)N1CCN(C2CCC2)CC1` [Compound 31, 2-[2-(4-Cyclobutylpiperazin-1-yl)-2-oxoethyl]-9-(2,2,2-trifluoroethyl)-2,3,4,9-tetrahydro-1H-beta-carboline], below 1 µM.

As to `CCn1c2c(c3ccccc31)CCN(CC(=O)N1CCN(C3CCC3)CC1)C2` [Compound 28, 2-[2-(4-Cyclobutylpiperazin-1-yl)-2-oxoethyl]-9-ethyl-2,3,4,9-tetrahydro-1H-beta-carboline], the inhibition constant (Ki) was below 1 µM. Under `CC(C)n1c2c(c3ccccc31)CCN(CC(=O)N1CCN(C3CCC3)CC1)C2` [Compound 30, 2-[2-(4-Cyclobutylpiperazin-1-yl)-2-oxoethyl]-9-isopropyl-2,3,4,9-tetrahydro-1H-beta-carboline] stands below 1 µM; under `CCCn1c2c(c3ccccc31)CCN(CC(=O)N1CCN(C3CCC3)CC1)C2` [Compound 29, 2-[2-(4-Cyclobutylpiperazin-1-yl)-2-oxoethyl]-9-propyl-2,3,4,9-tetrahydro-1H-beta-carboline], below 1 µM; under `O=C(CN1CCc2c([nH]c3cc(-c4cncnc4)ccc23)C1)N1CCN(C2CCC2)CC1` [Compound 27, 2-[2-(4-Cyclobutylpiperazin-1-yl)-2-oxoethyl]-7-pyrimidin-5-yl-2,3,4,9-tetrahydro-1H-beta-carboline], below 1 µM.

On to `CC1CCCC2CN(C(=O)CN3CCc4c([nH]c5ccccc45)C3)CCN12` (stereo not drawn) [Compound 33, 2-[2-(6-Methyloctahydro-2H-pyrido[1,2-a]pyrazin-2-yl)-2-oxoethyl]-2,3,4,9-tetrahydro-1571H-beta-carboline], for which the Ki was below 1 µM. Under `O=C(CN1CCc2c([nH]c3c(F)cccc23)C1)N1CCN(C2CCC2)CC1` [Compound 25, 2-[2-(4-Cyclobutylpiperazin-1-yl)-2-oxoethyl]-8-fluoro-2,3,4,9-tetrahydro-1H-beta-carboline] stands below 1 µM.
